In ChEMBL document CHEMBL1201862, “PubChem BioAssay data set” (2004):
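These data come from cells grown in 96-well plates and exposed to compound for 48 hours at five concentrations. The concentration for 50% growth inhibition is given as GI50.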 Activity calls are given as the source filed them. Cut-off read from the data, not from the text of the source: active = GI50 up to about 1.1 µM and inactive = higher.

How the values were obtained:
Assay in all cases: growth of human tumour cells (NCI), 48 h
[1] = test system: T47D
[2] = test system: ACHN
[3] = test system: OVCAR-5
[4] = test system: NCI-H23
[5] = test system: MDA-MB-231
[6] = test system: HL-60
[7] = test system: CAKI-1
[8] = test system: KM12
[9] = test system: SW-620
[10] = test system: SR
[11] = test system: U-251
[12] = test system: RXF 393
[13] = test system: Hs-578T
[14] = test system: TK-10
[15] = test system: RPMI-8226
[16] = test system: A498
[17] = test system: IGROV-1
[18] = test system: NCI-H460
[19] = test system: HOP-92
[20] = test system: MOLT-4

| SMILES | GI50 [1] | GI50 [2] | GI50 [3] | GI50 [4] | GI50 [5] | GI50 [6] | GI50 [7] | GI50 [8] | GI50 [9] | GI50 [10] | GI50 [11] | GI50 [12] | GI50 [13] | GI50 [14] | GI50 [15] | GI50 [16] | GI50 [17] | GI50 [18] | GI50 [19] | GI50 [20] |
| --- | --- | --- | --- | --- | --- | --- | --- | --- | --- | --- | --- | --- | --- | --- | --- | --- | --- | --- | --- | --- |
| COC(=O)[C@H]1ON2O[C@H](OC3CCCC[C@@H]3c3ccccc3)C[C@@H]3CC[C@H]1[C@@]32C (stereo not given in full) | 46.5 µM (inactive) | > 100 µM (inactive) | > 100 µM (inactive) | > 100 µM (inactive) | > 100 µM (inactive) | 9.66 µM (inactive) | > 100 µM (inactive) | 95.9 µM (inactive) | > 100 µM (inactive) | 72.9 µM (inactive) | 77.6 µM (inactive) | 45.9 µM (inactive) | > 100 µM (inactive) | > 100 µM (inactive) | 69.7 µM (inactive) | > 100 µM (inactive) | > 100 µM (inactive) | > 100 µM (inactive) | 81.7 µM (inactive) | 54.3 µM (inactive) |
| COc1cccc(NC(=O)CC(=O)NN)c1 | > 100 µM (inactive) | > 100 µM (inactive) | > 100 µM (inactive) | > 100 µM (inactive) | > 100 µM (inactive) | > 100 µM (inactive) | > 100 µM (inactive) | > 100 µM (inactive) | > 100 µM (inactive) | > 100 µM (inactive) | > 100 µM (inactive) | > 100 µM (inactive) | > 100 µM (inactive) | > 100 µM (inactive) | > 100 µM (inactive) | > 100 µM (inactive) | > 100 µM (inactive) | > 100 µM (inactive) | > 100 µM (inactive) | > 100 µM (inactive) |
| Cc1[nH]c(-c2ccccc2)c2nc(N(C)C)oc(=O)c12 | > 100 µM (inactive) | > 100 µM (inactive) | > 100 µM (inactive) | > 100 µM (inactive) | > 100 µM (inactive) | > 100 µM (inactive) | 0.212 µM (active) | > 100 µM (inactive) | > 100 µM (inactive) | > 100 µM (inactive) | > 100 µM (inactive) | > 100 µM (inactive) | > 100 µM (inactive) | > 100 µM (inactive) | > 100 µM (inactive) | > 100 µM (inactive) | > 100 µM (inactive) | > 100 µM (inactive) | > 100 µM (inactive) | > 100 µM (inactive) |
